{
  "source": "patent US11793782B2",
  "about": "“Therapeutic agents for neurodegenerative diseases” (priority 2017, dated 2023)",
  "key": {"[1]": {"system": "Tay-Sachs disease patient fibroblasts", "assay": "Glycosphingolipid (GSL) levels by HPLC, Tay-Sachs fibroblasts", "type": "cell-based, human", "conditions": "1 mM for 6 days, p<0.05"}, "[2]": {"system": "Niemann-Pick A (NPA) patient fibroblasts", "assay": "Lysosomal volume via LysoTracker, NPA fibroblasts", "type": "cell-based, human", "conditions": "1 mM, 6 days"}, "Npc1−/− and Npc1+/+ mice": {"system": "Npc1−/− and Npc1+/+ mice", "assay": "Motor function analysis (Open Field Activity Monitor), NPC mouse study", "type": "in vivo", "conditions": "0.1 g/kg from weaning, nine weeks of age", "experimental": "Separate groups of Npc1^−/− and Npc1^+/+ mice were left untreated, as controls. Motor function analysis was performed on mice at eight and nine weeks of age using an Open Field Activity Monitor according to manufacturer's instructions (Linton Instruments, Amlogger Software). Each mouse was placed in a plastic cage with bedding and analysed for five minutes. Rears were counted manually. Motor function parameters measured were: • 1. Centre Rearing: mice rearing on hind legs unsupported; • 2. Rearing: mice rearing on hind legs with and without the support of cage walls; • 3. Activity: regular movement of the animal including walks; • 4. Front to Back (FR) count: movement of the animal from front to back of the cage; • 5. Active Time: duration (s/min) of activeness regardless of movement; • 6. Mobile Time: duration (s/min) of mobility; • 7. Rearing Time: duration of any rearing. Results Coat Condition"}, "[3]": {"system": "patients with Niemann-Pick Type C (NPC)", "conditions": "Bremova et al. (2015); cited from earlier work"}, "NPC patients": {"system": "NPC patients", "assay": "Clinical severity score (CSS) and annual severity increment score (ASIS) in NPC patients", "type": "in vivo, human", "set-up": "key to CSS overall / CSS eye movement / CSS ambulation / CSS speech / CSS swallow / CSS fine motor skills / CSS cognition / CSS memory / CSS seizures: NPC clinical severity score; higher score = greater severity", "conditions": "for CSS overall / CSS ambulation / CSS cognition / CSS eye movement / CSS fine motor skills / CSS memory / CSS seizures / CSS speech / CSS swallow / ASIS overall: NPC patients; for ASIS overall: CSS divided by age", "excerpt": "Progression of a neurodegenerative disease over time or through treatment can be monitored, for example, using one or more known tests at two or more time points and comparing the results. Disease progression and/or severity can be assessed, for example, using the Scale for the Assessment and Rating of Ataxia (SARA), Spinocerebellar Ataxia Functional Index (SCAFI), the International Cooperative Ataxia Rating Scale (ICARS), the brief ataxia rating scale (BARS), the modified Disability Rating Scale (mDRS), EuroQol 5Q-5D-5L (EQ-5D-5L), the visual analogue scale (VAS), neuropsychological tests, such as Wechsler Adult Intelligence Scale-Revised (WAIS-R), Wechsler Intelligence Scale for Children-IV (WISC-IV), Montreal Cognitive Assessment (MoCA), as well as scales used in movement disorders, such as the Unified Parkinson's Rating Scale (UPRS) or the Unified Multiple System Atrophy Rating Scale (UMSARS), or other suitable tests. For certain LSDs, such as NPC, particular scores have been developed and validated over the last decades, for instance the clinical severity score (CSS) and annual severity increment score (ASIS) (see Yanjanin et al., “Linear Clinical Progression, Independent of Age of Onset, in Niemann-Pick Disease, Type C,” Am J Med Genet Part B 153B:132-140) and the modified 6-Domain NP-C disability Scale (mDRS score). For example, an NPC patient's severity can be quantified by assigning a CSS, which assesses various parameters of the disease (ambulation, seizures, eye movement, etc.) and gives each parameter a score out of 5. A higher score equals a greater severity. The ASIS quantifies the annual rate of change in the CSS, calculated by dividing the CSS by the patient's age. In this regard, certain scores in these tests are characteristic of symptomatic neurodegenerative disease patients and evidence disease progression and/or severity.\nAn NPC patient's severity may be quantified by assigning a clinical severity score (CSS), which assesses various parameters of the disease and gives each parameter a score out of 5 (higher score=greater severity). See Yanjanin et al., “Linear Clinical Progression, Independent of Age of Onset, in Niemann-Pick Disease, Type C,” Am J Med Genet Part B 153B:132-140. In an untreated patient, one can typically predict how the CSS will change over time in an individual, as disease progression appears to be linear. For example, if Patient A moves from a CSS of 8 to a CSS of 12 between month 0 and month 12, it can be predicted that by month 36, the patient will have a CSS of 20. The annual severity increment score (ASIS) quantities the annual rate of change in the CSS, calculated by dividing the CSS of a patient by the patient's age. […] Each year, the patient would be expected to progress by 4 CSS points, such that at 4 years of age, the patient's CSS would be 16. If therapeutic intervention slowed or arrested disease progression, one would expect the patient to have a smaller ASIS score after such therapy than at baseline.\nTen NPC patients were administered acetyl-leucine at 4.5 g/day over long durations. ACSS was determined at baseline, and at various time points, for eye movement, ambulation, speech, swallow, fine motor skills, cognition, memory, and seizures. An overall CSS was calculated at baseline and at each such time point by adding the individual CSS values for each parameter (eye movement, ambulation, etc.).\nThe ASIS at baseline and each time point was calculated using each patient's CSS and age at the time of assessment. The overall ASIS for each patient at each time point is shown below in Table 35."}, "[4]": {"system": "downbeat nystagmus patients", "assay": "Case studies, downbeat nystagmus patients", "type": "in vivo, human", "conditions": "downbeat nystagmus Patient 2"}, "[5]": {"conditions": "one line per Patient, 4.5 g/day, Time Point 2, listed as acetyl-leucine"}, "[6]": {"conditions": "one line per Patient, 4.5 g/day, Time Point 3, listed as acetyl-leucine"}, "[7]": {"conditions": "one line per Patient, 4.5 g/day, Time Point 4, listed as acetyl-leucine"}},
  "note": "“And” between values parts separate entries of the source, which are not always exact repeats. Equal values may be shown once.",
  "data": [
    {"smiles": "CC(=O)NC(CC(C)C)C(=O)O", "note": "(racemic) [acetyl-DL-leucine]", "values": [
      {"measurement": "GSL storage (decrease)", "setting": "[1]", "value": "statistically significant"},
      {"measurement": "LysoTracker fluorescence relative to untreated disease fibroblasts", "setting": "[2]", "value": "statistically significant reduction in LysoTracker fluorescence"},
      {"measurement": "Motor function vs untreated littermates", "setting": "Npc1−/− and Npc1+/+ mice", "value": "significantly improved motor function"},
      {"measurement": "Ataxia in one-month study involving 12 patients", "setting": "[3]", "value": "symptomatic improvement of ataxia"},
      {"measurement": "CSS overall", "setting": "NPC patients; one line per Patient I.D 1-10, 4.5 g/day, Time Point 2 (78-400 days, Table 25), listed as acetyl-leucine", "value": "13 and 12 (3×) and 23 and 19 and 22 and 11 (2×) and 33"},
      {"measurement": "CSS ambulation", "setting": "NPC patients; [5]", "value": "2 (5×) and 1 (3×) and 4 and 5"},
      {"measurement": "CSS cognition", "setting": "NPC patients; [5]", "value": "3 (5×) and 4 (3×) and 2 and 5"},
      {"measurement": "CSS eye movement", "setting": "NPC patients; [5]", "value": "2 and 3 (9×)"},
      {"measurement": "CSS fine motor skills", "setting": "NPC patients; [5]", "value": "1 (6×) and 4 (2×) and 2 and 5"},
      {"measurement": "CSS memory", "setting": "NPC patients; [5]", "value": "1 (5×) and 3 and 4 (3×) and 0"},
      {"measurement": "CSS seizures", "setting": "NPC patients; [5]", "value": "0 (9×) and 5"},
      {"measurement": "CSS speech", "setting": "NPC patients; [5]", "value": "2 (4×) and 1 (6×)"},
      {"measurement": "CSS swallow", "setting": "NPC patients; [5]", "value": "2 (5×) and 3 (3×) and 0 and 4"},
      {"measurement": "CSS overall", "setting": "NPC patients; one line per Patient, 4.5 g/day, Time Point 3 (165-644 days), listed as acetyl-leucine", "value": "10 (2×) and 12 and 21 (2×) and 19 and 11 (2×) and 33"},
      {"measurement": "CSS ambulation", "setting": "NPC patients; [6]", "value": "1 (5×) and 2 (3×) and 5"},
      {"measurement": "CSS cognition", "setting": "NPC patients; [6]", "value": "3 (5×) and 4 (3×) and 5"},
      {"measurement": "CSS eye movement", "setting": "NPC patients; [6]", "value": "2 (2×) and 3 (7×)"},
      {"measurement": "CSS fine motor skills", "setting": "NPC patients; [6]", "value": "1 (5×) and 4 (2×) and 2 and 5"},
      {"measurement": "CSS memory", "setting": "NPC patients; [6]", "value": "0 (2×) and 1 (3×) and 3 (2×) and 4 (2×)"},
      {"measurement": "CSS seizures", "setting": "NPC patients; [6]", "value": "0 (8×) and 5"},
      {"measurement": "CSS speech", "setting": "NPC patients; [6]", "value": "1 (6×) and 2 (3×)"},
      {"measurement": "CSS swallow", "setting": "NPC patients; [6]", "value": "2 (4×) and 3 (3×) and 0 and 4"},
      {"measurement": "CSS eye movement", "setting": "NPC patients; one line per Patient, 4.5 g/day, Time Point 4", "value": 3},
      {"measurement": "CSS overall", "setting": "NPC patients; one line per Patient, 4.5 g/day, Time Point 4 (297-414 days), listed as acetyl-leucine", "value": "12 and 21 and 33"},
      {"measurement": "CSS ambulation", "setting": "NPC patients; [7]", "value": "1 and 2 and 5"},
      {"measurement": "CSS cognition", "setting": "NPC patients; [7]", "value": "3 and 4 and 5"},
      {"measurement": "CSS fine motor skills", "setting": "NPC patients; [7]", "value": "1 and 4 and 5"},
      {"measurement": "CSS memory", "setting": "NPC patients; [7]", "value": "1 and 3 and 4"},
      {"measurement": "CSS seizures", "setting": "NPC patients; [7]", "value": "0 (2×) and 5"},
      {"measurement": "CSS speech", "setting": "NPC patients; [7]", "value": "1 and 2 (2×)"},
      {"measurement": "CSS swallow", "setting": "NPC patients; [7]", "value": "2 and 3 and 4"},
      {"measurement": "ASIS overall", "setting": "NPC patients; one line per patient (order of Table 26), Time Point 2, listed as acetyl-leucine", "value": "0.4767 and 0.4299 and 0.6073 and 0.5333 and 0.4452 and 0.7124 and 0.406 and 0.3769 and 1.905 and 0.5926"},
      {"measurement": "ASIS overall", "setting": "NPC patients; one line per patient, Time Point 3, listed as acetyl-leucine", "value": "0.3635 and 0.4232 and 0.5523 and 0.5299 and 0.4029 and 0.6656 and 0.3393 and 1.881 and 0.5325"},
      {"measurement": "ASIS overall", "setting": "NPC patients; one line per patient, Time Point 4, listed as acetyl-leucine", "value": "0.4162 and 0.5454 and 1.853"},
      {"measurement": "ASIS during treatment relative to ASIS at baseline", "setting": "NPC patients; ten NPC patients, 4.5 g/day", "value": "all ten patients showed a reduction in ASIS"},
      {"measurement": "Overall change in CSS over the course of the experiment", "setting": "NPC patients; ten NPC patients, 4.5 g/day", "value": "none of the ten patients showed an overall increase in CSS"},
      {"measurement": "Self-chosen velocity (gait analysis)", "setting": "[4]; about one month after stopping treatment, decrease from 85", "value": 72, "unit": "cm/s"},
      {"measurement": "Maximal gait velocity", "setting": "[4]; about one month after stopping treatment, decrease from 155", "value": 113, "unit": "cm/s"},
      {"measurement": "Self-chosen velocity (gait analysis)", "setting": "[4]; on treatment, increase from 56", "value": 85, "unit": "cm/s"}
    ]}
  ]
}
